Test [1] concerns the target human CB2 receptors (Homo sapiens (Human), UniProt P34972). The test is described as follows: cAMP assay, CHO cells expressing human CB2 receptors. It counts as cell-based. The note with it: CHO cells expressing human CB2, cAMP; read-out: human CB2 EC50. Summed up:
(§1)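 Agonist EC50 values come from cAMP levels measured in intact CHO cells. Compounds act for 30 min at 30 °C in the presence of 1 mM IBMX, and cAMP is then detected by time-resolved energy transfer after lysis.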
(In general: Cyclic AMP is a second messenger, typically raised through Gs and lowered through Gi signalling.)

Test [2] deals with human CB1 receptors (Homo sapiens (Human), UniProt P21554). Description: cAMP assay, CHO cells expressing human CB1 receptors. It counts as cell-based. Conditions: CHO cells expressing human CB1, cAMP; read-out: human CB1 EC50. Summed up:
as §1

The structures appear in SMILES notation.

As usually defined, the EC50 is the midpoint of the concentration-response curve.

Chain of human CB2 receptors (P34972 whole entry): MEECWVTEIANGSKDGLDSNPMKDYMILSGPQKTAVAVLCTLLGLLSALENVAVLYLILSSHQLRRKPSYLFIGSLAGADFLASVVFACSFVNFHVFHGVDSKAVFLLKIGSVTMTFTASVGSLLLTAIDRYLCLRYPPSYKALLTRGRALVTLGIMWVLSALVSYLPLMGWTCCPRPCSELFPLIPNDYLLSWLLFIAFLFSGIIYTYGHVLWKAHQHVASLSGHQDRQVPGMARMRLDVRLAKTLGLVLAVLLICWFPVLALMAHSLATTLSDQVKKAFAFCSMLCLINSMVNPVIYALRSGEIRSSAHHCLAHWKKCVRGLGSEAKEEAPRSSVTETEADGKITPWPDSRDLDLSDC
Chain of human CB1 receptors (P21554 whole entry): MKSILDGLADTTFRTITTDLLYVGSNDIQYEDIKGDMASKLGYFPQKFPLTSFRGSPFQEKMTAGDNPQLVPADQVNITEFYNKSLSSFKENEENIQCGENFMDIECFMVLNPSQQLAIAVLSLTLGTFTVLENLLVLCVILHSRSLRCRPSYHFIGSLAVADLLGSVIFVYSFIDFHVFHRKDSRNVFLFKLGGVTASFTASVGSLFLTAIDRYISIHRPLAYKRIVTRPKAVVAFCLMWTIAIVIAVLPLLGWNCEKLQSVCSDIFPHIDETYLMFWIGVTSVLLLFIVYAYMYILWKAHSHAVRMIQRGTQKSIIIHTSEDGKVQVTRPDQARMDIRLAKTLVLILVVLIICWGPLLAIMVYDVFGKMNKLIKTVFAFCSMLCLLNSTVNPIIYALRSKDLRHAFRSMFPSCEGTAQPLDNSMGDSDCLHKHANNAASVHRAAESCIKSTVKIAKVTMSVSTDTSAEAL

For the compound `CCC(CC)(NC(=O)c1ccc(C2CC2)c(OCC[C@H](O)C(F)(F)F)n1)C(=O)NC` [Example 320, 5-Cyclopropyl-6-((S)-4,4,4-trifluoro-3-hydroxy-butoxy)-pyridine-2-carboxylic acid (1-ethyl-1-methylcarbamoyl-propyl)-amide], the EC50 in test [1] was 0.0044 µM; in test [2], 0.323 µM.

Take `CC(C)CC(NC(=O)c1ccc(N2CC(F)(F)C2)c(OCC2CC2)n1)c1cccnn1` (centres unmarked) [Example 321, 6-Cyclopropylmethoxy-5-(3,3-difluoro-azetidin-1-yl)-pyridine-2-carboxylic acid (3-methyl-1-pyridazin-3-yl-butyl)-amide]: the EC50 in test [1] is 0.0189 µM; in test [2], more than 10 µM.

As to `Cc1nc(C(C)(C)NC(=O)c2ccc(N3CC(=O)C3)c(OCC3CC3)n2)no1` [Example 322, 6-Cyclopropylmethoxy-5-(3-oxo-azetidin-1-yl)-pyridine-2-carboxylic acid [1-methyl-1-(5-methyl-[1,2,4]oxadiazol-3-yl)-ethyl]-amide], the values for the 50% effective concentration (EC50) in test [1] and in test [2] were 0.424 µM and more than 10 µM, respectively.

Take `Cc1nc([C@@](C)(NC(=O)c2ccc(C3CC3)c(OCC3CC3)n2)C2CC2)no1` [Example 323, 5-Cyclopropyl-6-cyclopropylmethoxy-pyridine-2-carboxylic acid [(+)-1-cyclopropyl-1-(5-methyl-[1,2,4]oxadiazol-3-yl)-ethyl]-amide]: the half-maximal effective concentration (EC50) was determined as 0.0009 µM in test [1] and 0.181 µM in test [2].

As to `Cc1nc([C@](C)(NC(=O)c2ccc(C3CC3)c(OCC3CC3)n2)C2CC2)no1` [Example 324], the EC50 in test [1] was 0.0041 µM; in test [2], more than 10 µM.

On to `CC(C)CC(NC(=O)c1ccc(N2CC(F)(F)C2)c(OCC2CC2)n1)c1cccnc1` (centres unmarked) [Example 325, 6-Cyclopropylmethoxy-5-(3,3-difluoro-azetidin-1-yl)-pyridine-2-carboxylic acid (3-methyl-1-pyridin-3-yl-butyl)-amide], for which the results for the concentration giving a half-maximal response (EC50) in test [1] and in test [2] were 0.0175 µM and more than 10 µM, respectively.

For `NC(=O)[C@H](CC1CC1)NC(=O)c1ccc(C2CC2)c(Cc2ccc(F)cc2)n1` [Example 326, 5-Cyclopropyl-6-(4-fluoro-benzyl)-pyridine-2-carboxylic acid ((S)-1-carbamoyl-2-cyclopropyl-ethyl)-amide], the EC50 in test [1] was found to be 0.0002 µM; in test [2] it was 0.059 µM.

Turning to `Cc1nc([C@H](CC2CC2)NC(=O)c2ccc(C3CC3)c(Cc3ccc(F)cc3)n2)no1` [Example 327, 5-Cyclopropyl-6-(4-fluoro-benzyl)-pyridine-2-carboxylic acid [(S)-2-cyclopropyl-1-(5-methyl-[1,2,4]oxadiazol-3-yl)-ethyl]-amide], the 50% effective concentration (EC50) came out at 0.0011 µM in test [1] and 0.0136 µM in test [2].

In the case of `NC(=O)[C@@H](NC(=O)c1ccc(C2CC2)c(OCC2CC2)n1)c1ccc(F)cc1` [Example 328, 5-Cyclopropyl-6-cyclopropylmethoxy-pyridine-2-carboxylic acid [(S)-carbamoyl-(4-fluoro-phenyl)-methyl]-amide], the values for the concentration for a half-maximal effect (EC50) in test [1] and in test [2] were 0.0039 µM and more than 10 µM, respectively.

In the case of `NC(=O)[C@@H](NC(=O)c1ccc(C2CC2)c(OCC2CC2)n1)c1ccc(Cl)cc1` [Example 329, 5-Cyclopropyl-6-cyclopropylmethoxy-pyridine-2-carboxylic acid [(S)-carbamoyl-(4-chloro-phenyl)-methyl]-amide], the figures for the concentration giving a half-maximal response (EC50) in test [1] and in test [2] were 0.0211 µM and more than 10 µM, respectively.

For the compound `CC(C)C[C@H](NC(=O)c1cccc(S(=O)(=O)CC(C)C)n1)C(N)=O` [Example 330, 6-(2-Methyl-propane-1-sulfonyl)-pyridine-2-carboxylic acid ((S)-1-carbamoyl-3-methyl-butyl)-amide], the EC50 in test [1] is 0.869 µM; in test [2], more than 10 µM.

On to `CC(C)CSc1cccc(C(=O)N[C@@H](CC(C)C)C(N)=O)n1` [Example 331, 6-Isobutylsulfanyl-pyridine-2-carboxylic acid ((S)-1-carbamoyl-3-methyl-butyl)-amide], for which the half-maximal effective concentration (EC50) was 0.0166 µM in test [1] and more than 10 µM in test [2].

On to `O=C(N[C@@H](c1ccccn1)C(F)(F)F)c1ccc(C2CC2)c(Cc2ccc(F)cc2)n1` [Example 332, 5-Cyclopropyl-6-(4-fluoro-benzyl)-pyridine-2-carboxylic acid ((S)-2,2,2-trifluoro-1-pyridin-2-yl-ethyl)-amide], for which the EC50 in test [1] came to 0.0045 µM; in test [2], 0.091 µM.

Regarding `CCC(CC)(NC(=O)c1ccc(C2CC2)c(Cc2ccc(F)cc2)n1)C(=O)O` [Example 333, 2-{[5-Cyclopropyl-6-(4-fluoro-benzyl)-pyridine-2-carbonyl]-amino}-2-ethyl-butyric acid], the figures for the EC50 in test [1] and in test [2] were 0.008 µM and 0.081 µM, respectively.

As to `Cc1nc(C(C)(C)NC(=O)c2ccc(N3CCC(=O)C3)c(OCC3CC3)n2)no1` [Example 334, 6-Cyclopropylmethoxy-5-(3-oxo-pyrrolidin-1-yl)-pyridine-2-carboxylic acid [1-methyl-1-(5-methyl-[1,2,4]oxadiazol-3-yl)-ethyl]-amide], the EC50 was 0.108 µM in test [1] and more than 10 µM in test [2].

As to `Cc1nc([C@H](CC(C)C)NC(=O)c2cccc(S(=O)(=O)CC(C)C)n2)no1` [Example 335, 6-(2-Methyl-propane-1-sulfonyl)-pyridine-2-carboxylic acid [(S)-3-methyl-1-(5-methyl-[1,2,4]oxadiazol-3-yl)-butyl]-amide], the results for the EC50 in test [1] and in test [2] were 0.962 µM and more than 10 µM, respectively.

`CC(C)C[C@H](NC(=O)c1ccc(C2CC2)c(Cc2ccc(F)cc2)n1)C(=O)O` [Example 336, (S)-2-{[5-Cyclopropyl-6-(4-fluoro-benzyl)-pyridine-2-carbonyl]-amino}-4-methyl-pentanoic acid]: the EC50 was 0.239 µM in test [1] and more than 10 µM in test [2].

Regarding `CCC(CC)(NC(=O)c1ccc(C2CC2)c(OCC2CCOCC2)n1)C(=O)O` [Example 337, 2-{[5-Cyclopropyl-6-(tetrahydro-pyran-4-ylmethoxy)-pyridine-2-carbonyl]-amino}-2-ethyl-butyric acid], the 50% effective concentration (EC50) in test [1] amounted to 0.0345 µM; in test [2] it was 0.475 µM.

Regarding `Cn1c(C(C)(C)NC(=O)c2ccc(C3CC3)c(OCC3CC3)n2)noc1=O` [Example 338, 5-Cyclopropyl-6-cyclopropylmethoxy-pyridine-2-carboxylic acid [1-methyl-1-(4-methyl-5-oxo-4,5-dihydro-[1,2,4]oxadiazol-3-yl)-ethyl]-amide], the EC50 in test [1] is 0.534 µM; in test [2] it was more than 10 µM.

Regarding `CC(C)CC(NC(=O)c1ccc(N2CC(F)(F)C2)c(OCC2CC2)n1)c1ncccn1` (centres unmarked) [Example 339, 6-Cyclopropylmethoxy-5-(3,3-difluoro-azetidin-1-yl)-pyridine-2-carboxylic acid (3-methyl-1-pyrimidin-2-yl-butyl)-amide], the results for the EC50 in test [1] and in test [2] were 0.0649 µM and more than 10 µM, respectively.

With `Cc1nc(C(C)(NC(=O)c2ccc(N3CC(F)(F)C3)c(OCC3CC3)n2)C2CC2)no1` (centres unmarked) [Example 340, 6-Cyclopropylmethoxy-5-(3,3-difluoro-azetidin-1-yl)-pyridine-2-carboxylic acid [1-cyclopropyl-1-(5-methyl-[1,2,4]oxadiazol-3-yl)-ethyl]-amide], the EC50 is 0.0057 µM in test [1] and more than 10 µM in test [2].

Turning to `Cc1nc(C(C)(CC2CC2)NC(=O)c2ccc(N3CC(F)(F)C3)c(OCC3CC3)n2)no1` (centres unmarked) [Example 341, 6-Cyclopropylmethoxy-5-(3,3-difluoro-azetidin-1-yl)-pyridine-2-carboxylic acid [2-cyclopropyl-1-methyl-1-(5-methyl-[1,2,4]oxadiazol-3-yl)-ethyl]-amide], the EC50 in test [1] was 0.0084 µM; in test [2], more than 10 µM.

For `CSCC[C@H](NC(=O)c1ccc(N2CC(F)(F)C2)c(OCC2CC2)n1)C(N)=O` [Example 342, 6-Cyclopropylmethoxy-5-(3,3-difluoro-azetidin-1-yl)-pyridine-2-carboxylic acid ((S)-1-carbamoyl-3-methylsulfanyl-propyl)-amide], the EC50 in test [1] was 0.0028 µM; in test [2], more than 10 µM.

As to `Cc1nc([C@H](CC2CC2)NC(=O)c2cccc(-c3ccc(F)c(Cl)c3)n2)no1` [Example 343, 6-(3-Chloro-4-fluoro-phenyl)-pyridine-2-carboxylic acid [(S)-2-cyclopropyl-1-(5-methyl-[1,2,4]oxadiazol-3-yl)-ethyl]-amide], the concentration giving a half-maximal response (EC50) in test [1] is 0.0035 µM; in test [2], more than 10 µM.

On to `CC(C)C[C@@H](CNc1ccc([N+](=O)[O-])c2nonc12)NC(=O)c1ccc(N2CCCC2)c(OCC2CC2)n1` [Example 344, 6-Cyclopropylmethoxy-5-pyrrolidin-1-yl-pyridine-2-carboxylic acid {(S)-3-methyl-1-[(7-nitro-benzo[1,2,5]oxadiazol-4-ylamino)-methyl]-butyl}-amide], for which the EC50 in test [1] was 0.0256 µM; in test [2], more than 10 µM.

As for `CS(=O)(=O)CC[C@H](NC(=O)c1ccc(N2CC(F)(F)C2)c(OCC2CC2)n1)C(N)=O` [Example 345, 6-Cyclopropylmethoxy-5-(3,3-difluoro-azetidin-1-yl)-pyridine-2-carboxylic acid ((S)-1-carbamoyl-3-methanesulfonyl-propyl)-amide], the EC50 in test [1] was 0.295 µM; in test [2] it was more than 10 µM.

`CC(C)CSc1nc(C(=O)N[C@@H](CC(C)C)C(N)=O)ccc1C1CC1` [Example 346, 5-Cyclopropyl-6-isobutylsulfanyl-pyridine-2-carboxylic acid ((S)-1-carbamoyl-3-methyl-butyl)-amide]: the EC50 in test [1] is 0.011 µM; in test [2] it was more than 10 µM.

In the case of `Cc1nc([C@H](CC2CC2)NC(=O)c2cccc(-c3cccc(F)c3)n2)no1` [Example 347, 6-(3-Fluoro-phenyl)-pyridine-2-carboxylic acid [(S)-2-cyclopropyl-1-(5-methyl-[1,2,4]oxadiazol-3-yl)-ethyl]-amide], the EC50 in test [1] is 0.05 µM; in test [2], more than 10 µM.

Source of the values: patent US9290451B2 (Hoffmann-La Roche Inc., priority 2011, dated 2016).
